# Source: the Kinase Knowledgebase extract (Sharma et al. 2016)
# pIC50: −log10 of the molar value.
# Biological target: MAPK14 (human) (UniProt Q16539)
# Experiment: Inhibition of MAPK14 Kinase Activity
# Chain of MAPK14 (human) (Q16539 whole entry, looked up): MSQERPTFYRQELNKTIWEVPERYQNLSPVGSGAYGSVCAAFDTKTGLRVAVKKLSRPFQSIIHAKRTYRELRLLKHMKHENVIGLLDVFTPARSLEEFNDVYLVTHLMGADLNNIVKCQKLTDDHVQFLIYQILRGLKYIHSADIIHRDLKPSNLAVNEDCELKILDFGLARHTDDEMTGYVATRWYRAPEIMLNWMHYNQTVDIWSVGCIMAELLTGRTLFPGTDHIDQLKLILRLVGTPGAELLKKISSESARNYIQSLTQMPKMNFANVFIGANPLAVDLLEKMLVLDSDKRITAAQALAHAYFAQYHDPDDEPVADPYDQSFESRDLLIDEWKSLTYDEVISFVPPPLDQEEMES
row,Structure (SMILES),pIC50
1,COC(=O)c1sc(NC(=O)Nc2cc(C(C)(C)C)nn2-c2ccc(F)cc2)c(C)c1Cl,> 4.82
2,Cc1c(NC(=O)c2ccc(F)cc2)sc(C(=O)Nc2ccc(F)cc2)c1Cl,> 4.82
3,Cc1c(NC(=O)Nc2cc(C(C)(C)C)nn2-c2ccc(F)cc2)sc(C(=O)N2CCOCC2)c1Cl,> 4.82
4,CC(C)(C)c1cc(NC(=O)Nc2ccc(C(=O)N3CCOCC3)s2)n(-c2ccc(F)cc2)n1,> 4.82
5,CCOC(=O)c1ccc(NC(=O)Nc2cc(C(C)(C)C)nn2-c2ccc(F)cc2)s1,> 4.82
6,COC(=O)c1sc(NC(=O)c2cc(F)cc(N3CCOCC3)c2)c(C)c1Cl,> 4.82
7,Cc1c(NC(=O)Nc2cc(C(C)(C)C)nn2-c2ccc(F)cc2)sc(C(=O)NCc2ccncc2)c1Cl,> 4.82
8,COC(=O)c1sc(NC(=O)Nc2cc(C(C)(C)C)nn2-c2ccc(F)cc2)c(C#N)c1C,> 4.82

# The remaining lines, values ahead:
row,pIC50,Structure (SMILES)
1,> 4.82,Cc1c(NC(=O)Nc2nnc(C3CCCCC3)s2)sc(C(=O)N2CCOCC2)c1Cl
2,> 4.82,Cc1cc(NC(=O)c2cc(F)cc(N3CCOCC3)c2)sc1C(=O)N1CCOCC1
3,> 4.82,Cc1c(NC(=O)c2ccc(F)cc2)sc(C(=O)N2CCOCC2)c1Cl
4,> 4.82,Cc1c(NC(=O)Nc2nnc(N3CCOCC3)s2)sc(C(=O)N2CCOCC2)c1Cl
5,> 4.82,Cc1c(NC(=O)c2cc(F)cc(N3CCOCC3)c2)sc(C(=O)Nc2ccc(F)cc2)c1Cl
6,> 4.82,Cc1c(NC(=O)Nc2cc(C(C)(C)C)nn2-c2ccc(F)cc2)sc(C(=O)N2CCN(C)CC2)c1Cl
7,> 4.82,COC(=O)c1sc(NC(=O)c2ccc(F)cc2)c(C)c1C#N
8,> 4.82,Cc1c(NC(=O)c2cc(F)cc(N3CCOCC3)c2)sc(C(=O)N2CCOCC2)c1Cl
9,> 4.82,Cc1c(NC(=O)Nc2cc(C(C)(C)C)nn2-c2ccc(F)cc2F)sc(C(=O)N2CCOCC2)c1Cl
